The assay has as its target CAAX prenyl protease 2 (Saccharomyces cerevisiae (strain ATCC 204508 / S288c)) (UniProt Q03530). In words: Rce1p protease inhibitors, dose response, biochemical, plate reader, cherry-pick (AID 488788). As to conditions: Rce1p enzyme activity; for activity change, negative = inhibition: at 10 µM (top of the series).

Inconclusive results are not listed. The source made the active and inactive calls. The rule behind the calls is not given here.

As a reminder, the AC50 is the concentration giving half of the maximal activity seen.

CAAX prenyl protease 2 (Saccharomyces cerevisiae (strain ATCC 204508 / S288c)), sequence (Q03530 whole entry, looked up): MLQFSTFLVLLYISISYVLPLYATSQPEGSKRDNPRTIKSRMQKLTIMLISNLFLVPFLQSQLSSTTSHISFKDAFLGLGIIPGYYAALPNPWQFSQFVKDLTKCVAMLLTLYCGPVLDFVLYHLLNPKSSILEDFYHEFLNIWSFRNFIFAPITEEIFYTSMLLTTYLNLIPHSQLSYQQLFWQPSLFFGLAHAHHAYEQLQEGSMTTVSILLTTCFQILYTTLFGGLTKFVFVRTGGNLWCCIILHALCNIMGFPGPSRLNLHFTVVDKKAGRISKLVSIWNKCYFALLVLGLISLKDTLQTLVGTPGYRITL

Take `CSc1nc(NCC(C)O)c2c3c(sc2n1)CN(C)CC3` (stereo unspecified): the “activity change, negative = inhibition” value is “inactive”.

Turning to `CC1=C(C(=O)OCc2ccccc2)C(c2ccc(-c3ccccc3)cc2)NC(=O)N1CCCC(=O)O` (stereo unspecified), the “activity change, negative = inhibition” value is “inactive”.

For `O=C(Nc1ccccc1)n1ccc(-c2ccc(-n3ccnc3)cc2)n1`, the “activity change, negative = inhibition” value was “inactive”.

As for `CCn1nc(C)cc1C(=O)NC1CC(C)(C)Cc2c1cnn2-c1cccc(F)c1` (stereo unspecified), the “activity change, negative = inhibition” value was “inactive”.

In the case of `COc1ccc(/C=C/c2nc3ccccc3n2C)cc1`, the “activity change, negative = inhibition” value is “inactive”.

In the case of `CCc1nnc(NC(=O)c2ccc(NS(=O)(=O)c3ccccc3)cc2)s1`, the “activity change, negative = inhibition” value is “inactive”.

For the molecule `CC(C)[C@H](NC(=O)OCc1ccccc1)C(=O)OCC(=O)Nc1c(F)cccc1F`, the “activity change, negative = inhibition” value is “inactive”.

`Nc1nc2n[nH]nc2c(=O)[nH]1`: the “activity change, negative = inhibition” value was “inactive”.

As to `CC1=CC2=NC(=O)CC(C)(C(=O)N(CC(=O)NC3CCCC3)Cc3ccccc3)N2C=C1` (stereo unspecified), the “activity change, negative = inhibition” value was “inactive”.

For `COc1cccc(-c2nc(C#N)c(N3CCN(C(=O)c4ccco4)CC3)o2)c1`, the “activity change, negative = inhibition” value was “inactive”.

Consider `NC(N)=NC(=O)c1nc(Cl)c(N)nc1N`, for which the “activity change, negative = inhibition” value was “inactive”.

For `COC(=O)c1ccc(-c2ccc(CNCC(O)c3ccccc3)o2)cc1` (stereo unspecified), the “activity change, negative = inhibition” value is “inactive”.

Take `COCCN1C(=O)/C(=C/c2ccc(Oc3ccc([N+](=O)[O-])cn3)c(OC)c2)SC1=Nc1ccccc1`: the “activity change, negative = inhibition” value was “inactive”.

In the case of `CN1CCN(c2ccc([N+](=O)[O-])c(Sc3nncn3C)c2)CC1`, the “activity change, negative = inhibition” value is “inactive”.

For `Nc1c(C(=O)NCc2ccccc2)sc2nc(N3CCOCC3)c3c(c12)CCCC3`, the “activity change, negative = inhibition” value is “inactive”.

In the case of `NS(=O)(=O)c1ccc(NC(=O)/C=C/c2cn(-c3ccccc3)nc2-c2cccc(Cl)c2)cc1`, the “activity change, negative = inhibition” value was “inactive”.

As to `Cc1cc(N/N=C/c2ccc(O)c(C)c2O)nc(-c2ccccc2O)n1`, the “activity change, negative = inhibition” value is “inactive”.

Regarding `CC(C)C[C@H](NC(=O)c1nc[nH]c1C(=O)N1CCNCC1)C(=O)OCc1ccccc1`, the “activity change, negative = inhibition” value was “inactive”.

Regarding `Cc1ccc(C(=O)N2N=C(c3ccccc3O)CC2c2ccccc2)cc1` (stereo unspecified), the “activity change, negative = inhibition” value is “inactive”.

For `COc1ccc(OC)c(/C=N/c2c(-c3ccc(O)c(OC)c3)nc3ccccn23)c1`, the “activity change, negative = inhibition” value was “inactive”.

For `Cc1cc(NS(=O)(=O)c2ccccc2)c([N+](=O)[O-])cc1C`, the “activity change, negative = inhibition” value was “inactive”.

Take `CCOC(=O)c1nnn2c1nc(N1CCOCC1)c1ccccc12`: the “activity change, negative = inhibition” value is “inactive”.

`CC1CCc2c(sc(NC(=O)COC(=O)c3ccccc3NCc3ccco3)c2C#N)C1` (stereo unspecified): the “activity change, negative = inhibition” value was “inactive”.

As to `O=C(COC(=O)c1ccc(S(=O)(=O)N2CCCC2)cc1)NCc1ccccc1`, the “activity change, negative = inhibition” value is “inactive”.

Consider `CCOc1c2ccc(C(=O)NCc3ccco3)cc2nn1CCOC`, for which the “activity change, negative = inhibition” value is “inactive”.

With `O=C(COc1ccccc1)Nc1cccc(-c2nc3cc4ccccc4cc3[nH]2)c1`, the “activity change, negative = inhibition” value is “inactive”.

On to `O=C1CCCC(O)=C1N=Nc1ccc2ncsc2c1`, for which the “activity change, negative = inhibition” value was “inactive”.

Turning to `Cc1ccccc1OC(C)C(=O)N1CCC(Cc2ccccc2)CC1` (stereo unspecified), the “activity change, negative = inhibition” value is “inactive”.

For `CC1CCC/C(=C\Nc2ccccc2C(=O)O)C1=O` (stereo unspecified), the “activity change, negative = inhibition” value is “inactive”.

Regarding `COc1cc(-c2nc3ccccn3c2/N=C/c2cc(OC)c(OC)c(OC)c2)ccc1O`, the “activity change, negative = inhibition” value is “inactive”.

On to `Cc1cc2cc(C(=O)N3CCc4c([nH]c5ccccc45)C3c3ccccn3)ccc2o1` (stereo unspecified), for which the “activity change, negative = inhibition” value is “inactive”.

With `COc1ccccc1C1=NN(C2=NN=C(N)Cc3ncnn32)C(O)(C(F)(F)F)C1` (stereo unspecified), the “activity change, negative = inhibition” value is “inactive”.

For `CCOC(=O)c1sc2nc(C3CC3)cc(-c3ccc(OC)cc3)c2c1N`, the “activity change, negative = inhibition” value was “inactive”.

As to `Oc1ccc(-c2nc3ccccn3c2NCc2ccco2)cc1`, the “activity change, negative = inhibition” value was “inactive”.

In the case of `O=C1CN(C(=O)NCC(=O)N2CCCC2)c2ccccc2N1`, the “activity change, negative = inhibition” value is “inactive”.

For `COC(C/C=C/[C@H](O)[C@@H](C)OCc1ccccc1)OC`, the “activity change, negative = inhibition” value is “inactive”.

Take `c1ccc(CCCN2CCN(CCOC(c3ccccc3)c3ccccc3)CC2)cc1`: the “activity change, negative = inhibition” value was “inactive”.

With `N=C(N)c1ccc(/C=C/c2ccc(C(=N)N)cc2O)cc1`, the “activity change, negative = inhibition” value is “inactive”.

`CCN(CC)c1ccc(C(=O)c2ccccc2C(=O)O)c(O)c1`: the “activity change, negative = inhibition” value is “inactive”.

With `CCN(CC)CCCNC(=O)CCc1c(C)n(CC)c2cc(-c3ccccc3OC)nn2c1=O`, the “activity change, negative = inhibition” value was “inactive”.

Turning to `CCOc1ccc(C2C(C#N)=C(N)Oc3c2c(=O)oc2ccccc32)cc1` (stereo unspecified), the “activity change, negative = inhibition” value was “inactive”.

On to `COc1ccc(C(=O)/C=C/c2ccc(OC)cc2OC)c(O)c1`, for which the “activity change, negative = inhibition” value was “inactive”.

As for `CN1CC(C(=O)c2ccc(Cl)cc2)C(c2ccc(Cl)cc2Cl)C1` (stereo unspecified), the “activity change, negative = inhibition” value is “inactive”.

Take `CCCCCCCCNC(C)C(O)c1ccc(SC(C)C)cc1` (stereo unspecified): the “activity change, negative = inhibition” value was “inactive”.

For the molecule `CCOc1ccc(-n2ccnc(SCC(=O)NC3CCCC3)c2=O)cc1`, the “activity change, negative = inhibition” value was “inactive”.

On to `CCC1CCCCN1C(=O)NC(=O)c1ccccc1` (stereo unspecified), for which the “activity change, negative = inhibition” value is “inactive”.

`c1ccc(C[n+]2cccc3c4ccccc4ccc32)cc1`: the “activity change, negative = inhibition” value is “inactive”.

As for `CC(C)c1cccc(OCC(=O)Nc2ccc(S(=O)(=O)Nc3ccccn3)cc2)c1`, the “activity change, negative = inhibition” value was “inactive”.

Turning to `CN(C)CCNc1ncnc2oc(-c3ccccc3)c(-c3ccccc3)c12`, the “activity change, negative = inhibition” value is “inactive”.

`CCn1cc(C(=O)NCCO)c(=O)c2cc(F)c(N3CCN(C)CC3)cc21`: the “activity change, negative = inhibition” value is “inactive”.

Take `CCOCc1cc(C)[nH]c(=O)c1C#N`: the “activity change, negative = inhibition” value is “inactive”.

Consider `Cc1cc(C)cc(N2CC(O)=C(c3nc4ccccc4c(=O)[nH]3)C2=N)c1`, for which the “activity change, negative = inhibition” value is “inactive”.

Take `COc1cc(OC)cc(-c2ncc3ccccn23)c1`: the “activity change, negative = inhibition” value is “inactive”.

Regarding `O=C(Nc1cc(S(=O)(=O)N2CCCCC2)ccc1Cl)c1ccccc1NS(=O)(=O)c1ccc(F)cc1`, the “activity change, negative = inhibition” value is “inactive”.

For the molecule `CC(=O)OCC(=O)[C@@]12OC3(CCCC3)O[C@@H]1C[C@H]1[C@@H]3CCC4=CC(=O)C=C[C@]4(C)[C@@]3(F)[C@@H](O)C[C@@]12C`, the “activity change, negative = inhibition” value is “inactive”.

For the molecule `CCOC(=O)c1c(C2COc3ccccc3O2)csc1NC(=O)c1ccccc1` (stereo unspecified), the “activity change, negative = inhibition” value is “inactive”.

Consider `Cc1cc(C(=O)N[C@H](c2ccccc2)[C@@]2(C)C[C@@H]2[C@@H](C)C(=O)Nc2ccc3ccccc3c2)n(C)n1`, for which the “activity change, negative = inhibition” value was “inactive”.

With `COC(C[C@@H](O)C[C@H](O)[C@H](C)OCc1ccccc1)OC`, the “activity change, negative = inhibition” value was “inactive”.

Consider `CC(=O)OCC[N+](C)(C)C`, for which the “activity change, negative = inhibition” value was “inactive”.

Turning to `CC(=O)N[C@@H](C)c1nc2ccccc2n1CCCN1CCN(c2nc(-c3ccc(C)cc3)cs2)CC1`, the “activity change, negative = inhibition” value is “inactive”.

On to `Cc1nc(SC(C(=O)c2ccccc2)c2ccccc2)nc2ccccc12` (stereo unspecified), for which the “activity change, negative = inhibition” value is “inactive”.

As for `CN(C)c1ccc(/C=N/NC(=O)C(O)c2ccc(Br)cc2)cc1` (stereo unspecified), the “activity change, negative = inhibition” value is “inactive”.

With `CCN(Cc1ccccc1)c1ccc(/C=N/N=C(N)N)cc1`, the “activity change, negative = inhibition” value is “inactive”.

With `COc1cc(NC(=O)C/C(C)=N/NC(=O)c2cccc(O)c2)c(OC)cc1Cl`, the “activity change, negative = inhibition” value is “inactive”.

In the case of `O=[N+]([O-])c1cc(S(=O)(=O)N2CCCC2)ccc1NN=C1CCCCC1`, the “activity change, negative = inhibition” value is “inactive”.

Consider `CCc1nc(Nc2ccncc2)c2oc3ccccc3c2n1`, for which the “activity change, negative = inhibition” value was “inactive”.

On to `FC(F)(F)c1cc(Oc2ccccc2)ncc1-c1nnc(-c2ccccc2Cl)o1`, for which the “activity change, negative = inhibition” value is “inactive”.

Turning to `COC(C/C=C/C(=O)[C@H](C)OCc1ccccc1)OC`, the “activity change, negative = inhibition” value was “inactive”.

In the case of `O=C(NCC1CC1)c1ccc(Nc2nc3ccc(Br)cc3[nH]2)cc1`, the “activity change, negative = inhibition” value is “inactive”.

Regarding `CCOC(=O)C[C@H]1c2ccccc2S(=O)(=O)N1Cc1cc(OC)c(OC)c(OC)c1`, the “activity change, negative = inhibition” value is “inactive”.

For `O=C1OCCN1C(=O)[C@H]1[C@H](c2ccc(F)cc2)C(c2ccc(F)cc2)=NN1c1ccc(Br)cc1`, the “activity change, negative = inhibition” value is “inactive”.

Take `CC(=O)NN1C(=O)c2ccccc2NC1c1ccccc1` (stereo unspecified): the “activity change, negative = inhibition” value was “inactive”.

In the case of `COC(=O)C(Cc1ccccc1)OS(N)(=O)=O` (stereo unspecified), the “activity change, negative = inhibition” value was “inactive”.

As to `COC(C/C=C\C(=O)[C@H](C)OCc1ccccc1)OC`, the AC50 was > 10 µM (inactive).

Regarding `CCOC(=O)c1cc(C)[nH]c(=O)c1C#N`, the “activity change, negative = inhibition” value is “inactive”.

With `C=CCn1c(O)c(C(CC)=Nc2ccc(N(CC)CC)cc2)c(=O)[nH]c1=O`, the “activity change, negative = inhibition” value is “inactive”.

Take `C=CCn1c(N2CCCCCC2)nc2c1c(=O)n(C)c(=O)n2C`: the “activity change, negative = inhibition” value is “inactive”.

Consider `c1cnn(Cc2cnc(N3CCOCC3)s2)c1`, for which the “activity change, negative = inhibition” value was “inactive”.

Turning to `CCCCNC(=O)C(CC)Sc1nc2sc(C(=O)OC)c(C)c2c(=O)n1N` (stereo unspecified), the “activity change, negative = inhibition” value was “inactive”.

In the case of `CCCCOc1ccc(C(=O)Nn2c(-c3cccs3)nc3ccccc3c2=O)cc1`, the “activity change, negative = inhibition” value was “inactive”.

Turning to `Cc1c(CCC(=O)O)c(=O)oc2cc(OCc3cccc(F)c3)ccc12`, the “activity change, negative = inhibition” value is “inactive”.

The values above are taken from PubChem BioAssay AID488788 (Broad Institute, 2010).
